In ChEMBL document CHEMBL3399967, “Design and discovery of 2-oxochromene derivatives as liver X receptor β-selective agonists” (Bioorg Med Chem Lett, 2015):

Assays:
[1] = biological target: T1, Oxysterols receptor LXR-beta (Homo sapiens, UniProt P55055); assay: Agonist activity at Gal4-tagged LXRbeta (unknown origin) expressed in CHOK1 cells after 24 hrs by luciferase reporter gene assay; type: cell-based, CHO-K1
T1 sequence (P55055 whole entry): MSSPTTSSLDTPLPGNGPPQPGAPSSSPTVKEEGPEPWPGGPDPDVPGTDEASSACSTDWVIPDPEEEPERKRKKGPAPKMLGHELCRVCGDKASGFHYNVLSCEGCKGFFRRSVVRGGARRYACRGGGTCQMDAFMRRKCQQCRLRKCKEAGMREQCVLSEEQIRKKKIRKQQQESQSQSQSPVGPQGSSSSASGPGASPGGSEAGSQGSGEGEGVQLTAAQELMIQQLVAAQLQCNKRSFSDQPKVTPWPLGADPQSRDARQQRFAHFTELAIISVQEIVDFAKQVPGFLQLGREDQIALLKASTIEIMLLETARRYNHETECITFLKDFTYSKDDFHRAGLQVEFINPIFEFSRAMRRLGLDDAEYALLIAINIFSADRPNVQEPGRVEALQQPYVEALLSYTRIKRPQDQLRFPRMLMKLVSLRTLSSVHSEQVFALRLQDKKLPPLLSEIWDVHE

[2] = biological target: T2, Oxysterols receptor LXR-alpha (Homo sapiens, UniProt Q13133); assay: Agonist activity at Gal4-tagged LXRalpha (unknown origin) expressed in CHOK1 cells after 24 hrs by luciferase reporter gene assay; type: cell-based, CHO-K1
T2 sequence (Q13133 whole entry): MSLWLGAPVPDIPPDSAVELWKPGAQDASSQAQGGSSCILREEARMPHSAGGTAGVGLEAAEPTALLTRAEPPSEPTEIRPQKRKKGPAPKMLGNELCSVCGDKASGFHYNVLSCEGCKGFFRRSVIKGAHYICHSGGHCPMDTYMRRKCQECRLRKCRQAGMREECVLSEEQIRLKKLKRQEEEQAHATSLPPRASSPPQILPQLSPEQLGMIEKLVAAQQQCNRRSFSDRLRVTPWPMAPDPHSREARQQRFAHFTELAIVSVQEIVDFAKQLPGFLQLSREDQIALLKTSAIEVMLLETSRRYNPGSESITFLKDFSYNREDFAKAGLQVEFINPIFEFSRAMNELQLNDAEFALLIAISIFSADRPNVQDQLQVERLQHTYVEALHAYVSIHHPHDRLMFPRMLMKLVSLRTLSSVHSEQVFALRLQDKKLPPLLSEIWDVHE

HepG2 [3] = assay: Ratio of induction of ABCA1 mRNA expression to SREBP-1c mRNA expression in human HepG2 cells at 5 uM; type: functional
HepG2 [4] = assay: Induction of ABCA1 mRNA expression in human HepG2 cells at 5 uM relative to control; type: functional
HepG2 [5] = assay: Induction of SREBP-1c mRNA expression in human HepG2 cells at 5 uM relative to control; type: functional
Hamster [6] = assay: Effect on total cholesterol level in high-fat-and-cholesterol diet fed Male Bio F1B hamster plasma at 300 mg/kg, po relative to control; type: functional, Cricetinae
Hamster [7] = assay: Effect on HDL-C level in high-fat-and-cholesterol diet fed Male Bio F1B hamster plasma at 100 mg/kg, po relative to control; type: functional, Cricetinae
Hamster [8] = assay: Effect on total cholesterol level in high-fat-and-cholesterol diet fed Male Bio F1B hamster plasma at 100 mg/kg, po relative to control; type: functional, Cricetinae
Hamster [9] = assay: Effect on area of lipid accumulation in high-fat-and-cholesterol diet fed Male Bio F1B hamster aortic arch at 100 mg/kg, po relative to control; type: functional, Cricetinae, Pharyngeal arch artery
Syrian golden hamster = assay: Plasma concentration in Golden Syrian hamster at 100 mg/kg, po; type: ADME, organism-based, Mesocricetus auratus; design: dose 100 mg/kg, route oral; conditions: in vivo
Hamster [10] = assay: Effect on Plasma triglyceride level in high-fat-and-cholesterol diet fed Male Bio F1B hamster at 300 mg/kg, po relative to control; type: organism-based; design: dose 300 mg/kg, route oral; conditions: cricetinae, in vivo
Hamster [11] = assay: Effect on area of lipid accumulation in high-fat-and-cholesterol diet fed Male Bio F1B hamster aortic arch at 30 mg/kg, po relative to control; type: functional, Cricetinae
[12] = Plasma concentration in Golden Syrian hamster at 300 mg/kg, po after 2 hrs; type: ADME, organism-based, Mesocricetus auratus; design: dose 300 mg/kg, route oral
[13] = Plasma concentration in Golden Syrian hamster at 300 mg/kg, po after 0.5 hrs; type: ADME, organism-based, Mesocricetus auratus; design: dose 300 mg/kg, route oral
Hamster [14] = assay: Effect on Plasma triglyceride level in high-fat-and-cholesterol diet fed Male Bio F1B hamster at 100 mg/kg, po relative to control; type: organism-based; design: dose 100 mg/kg, route oral; conditions: cricetinae, in vivo
Hamster [15] = assay: Effect on area of lipid accumulation in high-fat-and-cholesterol diet fed Male Bio F1B hamster aortic arch at 300 mg/kg, po relative to control; type: functional, Cricetinae, Pharyngeal arch artery
Hamster [16] = assay: Effect on Plasma triglyceride level in high-fat-and-cholesterol diet fed Male Bio F1B hamster at 30 mg/kg, po relative to control; type: organism-based; design: dose 30 mg/kg, route oral; conditions: cricetinae, in vivo
[17] = Plasma concentration in Golden Syrian hamster at 300 mg/kg, po after 1 hr; type: ADME, organism-based, Mesocricetus auratus; design: dose 300 mg/kg, route oral
Hamster [18] = assay: Effect on total cholesterol level in high-fat-and-cholesterol diet fed Male Bio F1B hamster plasma at 30 mg/kg, po relative to control; type: functional, Cricetinae
Hamster [19] = assay: Effect on HDL-C level in high-fat-and-cholesterol diet fed Male Bio F1B hamster plasma at 300 mg/kg, po relative to control; type: functional, Cricetinae
Hamster [20] = assay: Effect on HDL-C level in high-fat-and-cholesterol diet fed Male Bio F1B hamster plasma at 30 mg/kg, po relative to control; type: functional, Cricetinae

Compound: CCCc1cc2c(C(F)(F)F)cc(=O)oc2c(CCC)c1OCCCCN1C(=O)NC(C)(c2ccccc2)C1=O (stereo unspecified)
- EC50 ([1]; read-out: EC50): 5.3 µM
- EC50 ([2]; cho-k1): Not Active

Compound: CCCc1cc2c(C(F)(F)F)cc(=O)oc2c(CCC)c1OCCCCN1C(=O)CN(C)C1=O
- EC50 ([1]; read-out: EC50): 1.3 µM
- EC50 ([2]; read-out: EC50): 2.6 µM

Compound: CCCc1cc2c(C(F)(F)F)cc(=O)oc2c(CCC)c1OCCCCN1C(=O)N(C)C(C)(c2ccccc2)C1=O (stereo unspecified)
- EC50 ([1]; cho-k1): Not Active
- EC50 ([2]; cho-k1): Not Active

Compound: CCCc1cc2c(C(F)(F)F)cc(=O)oc2c(CCC)c1OCCCCN1C(=O)NC(C)(c2ccc(C)cc2)C1=O (stereo unspecified)
- EC50 ([1]; read-out: EC50): 2.4 µM
- EC50 ([2]; cho-k1): Not Active

Compound: CCCc1c(OCCCCN2C(=O)NC(C)(c3ccc(OC)c(OC)c3)C2=O)ccc2c(C(F)(F)F)cc(=O)oc12 (stereo unspecified)
- EC50 ([1]; read-out: EC50): 3 µM
- EC50 ([2]; cho-k1): Not Active

Compound: CCCc1cc2c(C(F)(F)F)cc(=O)oc2c(CCC)c1OCCCCN1C(=O)C(C)N(C)C1=O (stereo unspecified)
- EC50 ([1]; read-out: EC50): 1.3 µM
- EC50 ([2]; read-out: EC50): 1.7 µM

Compound: CCCc1c(OCCCCN2C(=O)NC(C)(c3ccccc3)C2=O)ccc2c(C(F)(F)F)cc(=O)oc12 (stereo unspecified)
- EC50 ([1]; read-out: EC50): 2 µM
- EC50 ([2]; cho-k1): Not Active

Compound: CCCc1cc2c(C(F)(F)F)cc(=O)oc2c(CCC)c1OCCCCN1C(=O)NC(C)(c2ccc(N(C)C)cc2)C1=O (stereo unspecified)
- EC50 ([1]; cho-k1): Not Active
- EC50 ([2]; cho-k1): Not Active

Compound: O=c1cc(C(F)(F)F)c2cc3c4c(c2o1)CCCN4CCC3
- Ratio (HepG2 [3]): 2.3
- fold change (FC) (HepG2 [4]): 9.1
- fold change (FC) (HepG2 [5]): 3.9

Compound: CCCc1cc2c(C(F)(F)F)cc(=O)oc2c(CCC)c1OCCCCN1C(=O)NC(C)(c2ccc(OC)cc2)C1=O (stereo unspecified)
- EC50 ([1]; read-out: EC50): 0.96 µM
- EC50 ([2]; cho-k1): Not Active

Compound: CCCc1cc2c(C(F)(F)F)cc(=O)oc2c(CCC)c1OCCCCN1C(=O)NC(C)(c2ccccc2OC)C1=O (stereo unspecified)
- EC50 ([1]; cho-k1): Not Active
- EC50 ([2]; cho-k1): Not Active

Compound: CCCc1cc2c(C(F)(F)F)cc(=O)oc2c(CCC)c1OCCCCN1C(=O)NC(C)(c2ccc(C(F)(F)F)cc2)C1=O (stereo unspecified)
- EC50 ([2]; cho-k1): Not Active

Compound: CCCc1c(OCCCCN2C(=O)NC(C)(c3ccc(OC)cc3)C2=O)ccc2c(C(F)(F)F)cc(=O)oc12 (stereo unspecified)
- Activity (Hamster [6]): 98%
- Activity (Hamster [7]): 96%
- Activity (Hamster [8]): 101%
- Activity (Hamster [9]): 102%
- Cp (Syrian golden hamster): Not Active
- Activity (Hamster [10]): 96%
- Activity (Hamster [11]): 119%
- concentration at 2 h [12]: 0.059 µg/mL
- concentration at 0.5 h [13]: 0.05 µg/mL
- Activity (Hamster [14]): 131%
- Activity (Hamster [15]): 56%
- Activity (Hamster [16]): 136%
- concentration at 1 h [17]: 0.053 µg/mL
- Activity (Hamster [18]): 115%
- Activity (Hamster [19]): 113%
- Activity (Hamster [20]): 96%

Compound: CCCc1cc2c(C(F)(F)F)cc(=O)oc2c(CCC)c1OCCCCN1C(=O)CCC1=O
- EC50 ([1]; read-out: EC50): 1.4 µM

Compound: CCCc1cc2c(C(F)(F)F)cc(=O)oc2c(CCC)c1OCCCCN1CCCC1=O
- EC50 ([1]; cho-k1): Not Active
- EC50 ([2]; cho-k1): Not Active

Compound: CCCc1cc2c(C(F)(F)F)cc(=O)oc2c(CCC)c1OCCCCN1C(=O)NC(C)C1=O (stereo unspecified)
- EC50 ([1]; read-out: EC50): 1.3 µM
- EC50 ([2]; read-out: EC50): 1.5 µM

Compound: CCCc1c(OCCCCN2C(=O)CN(C)C2=O)ccc2c(C(F)(F)F)cc(=O)oc12
- EC50 ([1]; read-out: EC50): 1.3 µM
